# Test results reported in ChEMBL document CHEMBL1782037, “Discovery and characterization of a nonphosphorylated cyclic peptide inhibitor of the peptidylprolyl isomerase, Pin1” (J Med Chem, 2011).
# Active and inactive are the calls of the source. No cut-off for these calls is given here. Positions of bridges follow the written chain, without caps; N, C: chain ends. Residues, ends and D or L forms follow the SMILES beside them.
# Key:
# [1] = molecular target: T1, Peptidyl-prolyl cis-trans isomerase NIMA-interacting 1 (Homo sapiens, UniProt Q13526); test: Binding affinity to human Pin1 PPIase domain at 480 uM by NMR chemical shift perturbation method
# [2] = molecular target: T1, Peptidyl-prolyl cis-trans isomerase NIMA-interacting 1; test: Binding affinity to human Pin1 WW domain at 480 uM by NMR chemical shift perturbation method
# [3] = molecular target: T1, Peptidyl-prolyl cis-trans isomerase NIMA-interacting 1; test: Binding affinity to human Pin1 active site at 200 uM by NMR study
# [4] = molecular target: T1, Peptidyl-prolyl cis-trans isomerase NIMA-interacting 1; test: Binding affinity to human Pin1 PPIase domain at 200 uM by agarose gel electrophoresis
# [5] = molecular target: T1, Peptidyl-prolyl cis-trans isomerase NIMA-interacting 1; test: Binding affinity to human Pin1 WW domain at 200 uM by agarose gel electrophoresis
# [6] = molecular target: T1, Peptidyl-prolyl cis-trans isomerase NIMA-interacting 1; test: Inhibition of human GST-tagged-Pin1 PPIase activity using Suc-AEPF-pNA as substrate by Michaelis-Menten equation
# [7] = molecular target: T1, Peptidyl-prolyl cis-trans isomerase NIMA-interacting 1; test: Competitive inhibition of human GST-tagged-Pin1 PPIase activity using WFYpSPR-pNA as substrate by Michaelis-Menten equation
# [8] = Solubility of the compound; type: physicochemical
# T1 sequence (Q13526 whole entry, the tested form may be a part): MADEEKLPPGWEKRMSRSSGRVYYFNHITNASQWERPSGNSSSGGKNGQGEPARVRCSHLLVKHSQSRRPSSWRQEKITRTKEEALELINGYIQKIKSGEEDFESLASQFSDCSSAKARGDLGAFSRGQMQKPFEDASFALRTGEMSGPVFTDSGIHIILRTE
Activity [1],Activity [2],Activity [3],Activity [4],Activity [5],Ki [6] [nM],Ki [7] [nM],solubility [8],SMILES
Active,inactive,Active,Active,inactive,,,,CC[C@H](C)[C@@H]1NC(=O)[C@H](CCC(=O)O)NC(=O)[C@H](C(C)C)NC(=O)[C@H](CCC(=O)O)NC(=O)[C@@H]2CCCN2C(=O)[C@H](Cc2ccc(O)cc2)NC(=O)[C@H](CCCNC(=N)N)NC(=O)[C@@H](N)CSSC[C@@H](C(=O)O)NC1=O (H-CRYPEVEIC-OH; disulfide 1-9)
,,,,,44000,,,CC[C@H](C)[C@H](NC(=O)[C@H](CCC(=O)O)NC(=O)[C@@H](NC(=O)[C@H](CCC(=O)O)NC(=O)[C@@H]1CCCN1C(=O)[C@H](Cc1ccc(O)cc1)NC(=O)[C@H](CCCN=C(N)N)NC(=O)[C@@H](N)CS)C(C)C)C(=O)N[C@@H](CS)C(=O)O [CRYPEVEIC] (H-CRYPEVEIC-OH)
,,,,,520,200,soluble,CC[C@H](C)[C@@H]1NC(=O)[C@H](CCC(=O)O)NC(=O)[C@H](C(C)C)NC(=O)[C@H](CCC(=O)O)NC(=O)[C@@H]2CCCN2C(=O)[C@H](Cc2ccc(O)cc2)NC(=O)[C@H](CCCN=C(N)N)NC(=O)[C@@H](N)CSSC[C@@H](C(=O)O)NC1=O [CYCLIC CRYPEVEIC] (H-CRYPEVEIC-OH; disulfide 1-9)
